Measured values reported in patent publication US20030049204A1, “Individualization of therapy with gastroesophageal reflux disease agents” (McGill University, priority 2001, published 2003).
Like-named read-outs stand apart in the source and are kept apart here. Marks after values point to notes of the source that are not given here.

Tests used:
[1] = test system: AAMU-Ab; test: Competitive antigen ELISA, cross-reactivity of AAMU-Ab; assay type: binding, rabbit; settings: 0 = absence of inhibition or inhibition no higher than 40% at highest concentration tested (5 × 10^−3 M)
Description: (§1) Four mature females New Zealand white rabbits (Charles River Canada, St-Constant, Que., Canada) are used for antibody production. The protocol employed in this study was approved by the McGill University Animal Care Committee in accordance with the guidelines from the Canadian Council on Animal Care. Antibodies of the present invention may be monoclonal or polyclonal antibodies.
(§2) A 0.5 mL aliquot of the emulsion ([…] of antigen) is injected per rabbit intramuscularly or subcutaneously. Rabbits are subsequently boosted at intervals of three weeks with […] of antigen emulsified in incomplete Freund's adjuvant. […] Antisera are stored at 4° C. in the presence of 0.01% sodium azide.
(§3) Buffers and water without additives are filtered through millipore filters and kept for 1 week. BSA, antibodies, Tween™ 20 and horse radish peroxidase conjugates are added to these buffers and water just prior to use. Urine samples are usually collected 4 hours after drinking a cup of coffee (instant or brewed with approximately 100 mg of caffeine per cup) and stored at −80° C. The urine samples are diluted 10 times with sodium phosphate buffer (620 mosm, pH 7.50) and are subsequently diluted with water to give concentrations of AAMU and 1X no higher than 3×10^−6 M in the ELISA. All the pipettings are done with an eight-channel pipette, except those of the antibody and sample solutions. Starting with the last well, 100 μL of a carbonate buffer (100 mM, pH 9.6) containing 2.5 μg mL-^1 antibodies are added to each well. After 90 min. at room temperature, the wells are washed three times with 100 mL of TPB: isotonic sodium phosphate buffer (310 mosm, pH 7.50) containing 0.05% Tween™ 20.
(§4) After the initial wash, unoccupied sites are blocked by incubation for 90 min. at room temperature with 100 μL TBP containing 3% BSA. The wells are washed four times with 100 μL TPB. […] The microplate is gently shaken with an orbital shaker at room temperature for 3-4 hours. The wells are washed three times with 100 μL TPB containing 1% BSA and three times with water containing 0.05% Tween™ 20. To the washed plate is added 150 μL of a substrate buffer composed of citric acid (25 mM) and sodium phosphate dibasic buffer (50 mM, pH 5.0) containing 0.06% hydrogen peroxide and 0.04% o-phenylenediamine hydrochloride.
as §3, with “were” for “are”, “They were” for “The urine samples are”, “mL^−1” for “mL-^1”, “was pipetted.” for “are added to each well.”, “μL” for “mL”
(§5) After the initial wash, unoccupied sites were blocked by incubation for 90 min. at room temperature with 100 μL TBP containing 3% BSA. The wells were washed four times with 100 μL TPB. […] The microplate was gently shaken with an orbital shaker at room temperature for 3-4 hours. The wells were washed three times with 100 μL with TPB containing 1% BSA and three times with water containing 0.05% Tween™ 20. To the washed plate was added 150 μL of a substrate buffer composed of citric acid (25 mM) and sodium phosphate dibasic buffer (50 mM, pH 5.0) containing 0.06% hydrogen peroxide and 0.04% o-phenylenediamine hydrochloride.

[2] = test system: 1X-Ab; test: Competitive antigen ELISA, cross-reactivity of 1X-Ab; assay type: binding, rabbit; settings: 0 = absence of inhibition or inhibition no higher than 40% at highest concentration tested (5 × 10^−3 M)
Description: as §1, §2, §3, §4
as §3, with “were” for “are”, “They were” for “The urine samples are”, “mL^−1” for “mL-^1”, “was pipetted.” for “are added to each well.”, “μL” for “mL”
as §5

[3] = cited from earlier work
[4] = test system: plasma proteins, mainly albumin; settings: cited from earlier work
[5] = especially less severe degrees of esophagitis; cited from earlier work
[6] = target: serotonin-4 (5-HT4) receptor (Homo sapiens, UniProt Q13639); settings: in vitro; cited from earlier work
[7] = target: T1, rapid component of the delayed rectifying K^+ current (lkr) (Oryctolagus cuniculus, UniProt Q8WNY2); settings: in vivo anesthetized guinea pig and rabbit; in vitro isolated rabbit preparations; cited from earlier work
T1 construct: in vitro isolated rabbit Purkinje fibers and ventricular papillary muscle and isolated rabbit ventricular myocyte models; from tissue; host or cells: rabbit Purkinje fibers, ventricular papillary muscle and ventricular myocytes; also anesthetized guinea pig and rabbit in vivo
T1 sequence (Q8WNY2 1-1161): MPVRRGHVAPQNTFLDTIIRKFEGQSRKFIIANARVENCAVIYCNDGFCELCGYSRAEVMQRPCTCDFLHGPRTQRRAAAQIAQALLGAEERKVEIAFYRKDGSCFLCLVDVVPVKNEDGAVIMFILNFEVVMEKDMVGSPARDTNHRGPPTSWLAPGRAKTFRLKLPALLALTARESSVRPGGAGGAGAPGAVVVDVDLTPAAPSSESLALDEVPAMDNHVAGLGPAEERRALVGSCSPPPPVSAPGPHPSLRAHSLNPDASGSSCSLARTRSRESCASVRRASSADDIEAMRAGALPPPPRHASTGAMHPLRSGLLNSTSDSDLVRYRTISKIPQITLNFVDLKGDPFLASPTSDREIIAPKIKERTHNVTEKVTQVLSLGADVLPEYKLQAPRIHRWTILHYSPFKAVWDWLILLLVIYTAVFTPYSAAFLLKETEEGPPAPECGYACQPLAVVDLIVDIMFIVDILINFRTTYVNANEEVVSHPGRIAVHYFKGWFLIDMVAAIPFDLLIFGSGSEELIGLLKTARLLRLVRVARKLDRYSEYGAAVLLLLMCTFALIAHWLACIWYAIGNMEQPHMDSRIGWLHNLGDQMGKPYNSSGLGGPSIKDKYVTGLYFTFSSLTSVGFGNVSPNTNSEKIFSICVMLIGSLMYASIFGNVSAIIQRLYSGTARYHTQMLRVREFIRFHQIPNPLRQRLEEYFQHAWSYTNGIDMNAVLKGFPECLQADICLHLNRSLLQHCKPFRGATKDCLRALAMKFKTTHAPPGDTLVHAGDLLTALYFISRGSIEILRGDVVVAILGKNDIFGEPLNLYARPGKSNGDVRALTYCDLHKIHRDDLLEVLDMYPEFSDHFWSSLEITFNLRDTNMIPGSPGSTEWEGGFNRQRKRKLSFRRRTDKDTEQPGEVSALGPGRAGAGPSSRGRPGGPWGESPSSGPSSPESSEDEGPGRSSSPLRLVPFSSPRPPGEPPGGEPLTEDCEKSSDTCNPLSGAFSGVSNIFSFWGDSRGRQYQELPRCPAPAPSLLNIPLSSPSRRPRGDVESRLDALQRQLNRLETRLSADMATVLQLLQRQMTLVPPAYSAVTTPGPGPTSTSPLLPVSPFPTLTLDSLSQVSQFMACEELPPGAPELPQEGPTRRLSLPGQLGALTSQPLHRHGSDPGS

[8] = in vivo; cited from earlier work
[9] = cited from earlier work; remark: listed apart in the source

Sequence of serotonin-4 (5-HT4) receptor (Q13639 whole entry, species assumed): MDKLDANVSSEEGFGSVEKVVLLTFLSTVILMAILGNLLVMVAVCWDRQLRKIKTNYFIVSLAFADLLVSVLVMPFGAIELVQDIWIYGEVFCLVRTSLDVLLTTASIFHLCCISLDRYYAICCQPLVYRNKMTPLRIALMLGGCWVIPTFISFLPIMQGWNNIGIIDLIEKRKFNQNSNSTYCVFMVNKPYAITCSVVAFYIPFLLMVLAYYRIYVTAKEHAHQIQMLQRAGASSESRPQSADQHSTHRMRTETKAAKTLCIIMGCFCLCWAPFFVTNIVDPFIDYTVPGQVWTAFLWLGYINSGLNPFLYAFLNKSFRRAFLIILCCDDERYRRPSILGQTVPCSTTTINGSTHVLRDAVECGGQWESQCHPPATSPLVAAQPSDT

SMILES | % Cross-Reaction AAMU-Ab [1] | % Cross-Reaction 1X-Ab [2] | further results
Cn1c(=O)c2c(ncn2C)n(C)c1=O [1,3,7-Trimethyl Xanthine (Caffeine), 1,3,7-Trimethyl Xanthine] | 0% | 0% | –
Cn1c(=O)c2[nH]cnc2n(C)c1=O [1,3-Dimethyl Xanthine (Theophylline), 1,3-Dimethyl Xanthine] | 0% | 0.2% | –
Cn1c(=O)[nH]c2ncn(C)c2c1=O [1,7-Dimethyl Xanthine (Paraxanthine), 1,7-Dimethyl Xanthine] | 0% | 0.5% | –
Cn1c(=O)[nH]c2[nH]c(=O)n(C)c2c1=O [1,7-Dimethyluric acid] | 0% | 0% | –
Cn1c(=O)[nH]c2nc[nH]c2c1=O [1-Methyl Xanthine (1X), 1-Methyl Xanthine] | 0% | 100% | –
Cn1c(=O)[nH]c2[nH]c(=O)[nH]c2c1=O [1-Methyluric acid] | 0% | 11% | –
Cn1cnc2c1c(=O)[nH]c(=O)n2C [3,7-Dimethyl Xanthine (Theobromine), 3,7-Dimethyl Xanthine] | 0% | 0% | –
Cn1c(=O)[nH]c(=O)c2[nH]cnc21 [3-Methyl Xanthine] | 0% | 0% | –
CC(=O)Nc1c(N)n(C)c(=O)n(C)c1=O [5-Acetamino-6-amino-1,3-dimethyluracil] | 0% | 0% | –
CC(=O)Nc1c(N)n(C)c(=O)[nH]c1=O [5-Acetamino-6-amino-1-methyluracil] | 100% | 0% | –
CC(=O)Nc1c(N)[nH]c(=O)[nH]c1=O [5-Acetamino-6-amino-uracil] | 0.6% | 0% | –
Cn1cnc2[nH]c(=O)[nH]c(=O)c21 [7-Methyl Xanthine] | 0% | 0% | –
Cc1nc2[nH]c(=O)[nH]c(=O)c2[nH]1 [8-Methyl Xanthine] | 0% | 0% | –
COc1cc(N)c(Cl)cc1C(=O)NC1CCN(CCCOc2ccc(F)cc2)CC1OC (centres unmarked) [Cisapride] | – | – | half-life ([3]; following intravenous (IV) administration): up to 20 hours; absolute bioavailability ([3]; in vivo): 35-40%; plasma clearance ([3]; in vivo): about 100 ml/min; volume of distribution ([3]; in vivo): about 180 L; unmetabolized drug accounted for in urinary and fecal recovery ([3]; oral administration): less than 10%; binding to plasma proteins [4]: 97.5-98%; long-term control of GERD, individuals [5]: up to 50%; activity at serotonin-4 (5-HT4) receptor [6]: receptor agonist; effect on cardiac repolarization [7]: prolonged cardiac repolarization without slowing conduction; deaths among reports of heart rhythm abnormalities [8]: 80; diarrhea, individuals affected [8]: about 10%; reports of heart rhythm abnormalities [8]: at least 341
Nc1nc2nc[nH]c2c(=O)[nH]1 [Guanine] | 0% | 0% | –
O=c1[nH]cnc2nc[nH]c12 [Hypoxanthine] | 0% | 0% | –
O=c1cc[nH]c(=O)[nH]1 [Uracil] | 0% | 0% | –
O=c1[nH]c(=O)c2[nH]c(=O)[nH]c2[nH]1 [Uric acid] | 0% | 0% | –
O=c1[nH]c(=O)c2[nH]cnc2[nH]1 [Xanthine] | 0^a % | 0% | –
Nc1ccc(S(=O)(=O)c2ccc(N)cc2)cc1 [dapsone] | – | – | adverse reactions ([9]; fast acetylators): 17%; adverse reactions ([9]; slow acetylators): 46%
